Results: ChEMBL document CHEMBL1201862, “PubChem BioAssay data set” (2004)
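These data come from cells grown in 96-well plates and exposed to compound for 48 hours at five concentrations. GI50: concentration for 50% inhibition of growth.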 Activity calls are given as the source filed them. No stated cut-off is given here; in the data, active = GI50 up to about 1.1 µM and inactive = higher.

Tests used:
Experiment in all cases: DTP human tumour cell line panel, 48 h
[1] = test system: SF-295
[2] = test system: TK-10
[3] = test system: SK-OV-3
[4] = test system: A498
[5] = test system: K562
[6] = test system: ACHN
[7] = test system: HOP-62
[8] = test system: MDA-N
[9] = test system: SW-620
[10] = test system: M14
[11] = test system: U-251
[12] = test system: COLO 205
[13] = test system: UACC-62
[14] = test system: CCRF-CEM
[15] = test system: MCF7
[16] = test system: LOX IMVI
[17] = test system: UO-31
[18] = test system: NCI-H522
[19] = test system: CAKI-1
[20] = test system: Hs-578T
[21] = test system: HL-60
[22] = test system: RPMI-8226
[23] = test system: NCI-H23
[24] = test system: HCC 2998
[25] = test system: A549
[26] = test system: HT-29
[27] = test system: SN12C
[28] = test system: SK-MEL-5
[29] = test system: MDA-MB-435
[30] = test system: NCI/ADR-RES
[31] = test system: OVCAR-4
[32] = test system: KM12
[33] = test system: MDA-MB-231
[34] = test system: SNB-75
[35] = test system: PC-3
[36] = test system: HCT-116
[37] = test system: SK-MEL-2
[38] = test system: BT-549
[39] = test system: HCT-15
[40] = test system: OVCAR-8
[41] = test system: 786-0
[42] = test system: NCI-H226
[43] = test system: DU-145
[44] = test system: Malme-3M
[45] = test system: SNB-19
[46] = test system: SF-268
[47] = test system: SR
[48] = test system: SK-MEL-28
[49] = test system: EKVX
[50] = test system: UACC-257
[51] = test system: OVCAR-5
[52] = test system: HOP-92
[53] = test system: T47D
[54] = test system: NCI-H460
[55] = test system: SF-539
[56] = test system: MOLT-4
[57] = test system: RXF 393
[58] = test system: OVCAR-3
[59] = test system: IGROV-1

`Cc1cc(O)nc2cc3oc4ccccc4c3cc12` was tested, and the GI50 [1] was > 100 µM (inactive), the GI50 [2] was 30.6 µM (inactive) and the GI50 [3] was > 57.9 µM (inactive). The GI50 [4] was > 100 µM (inactive), the GI50 [5] was 30.9 µM (inactive) and the GI50 [6] was 24.2 µM (inactive). For the same molecule, the GI50 [7] was > 100 µM (inactive), the GI50 [8] was > 100 µM (inactive) and the GI50 [9] was 35.2 µM (inactive). The GI50 [10] was > 100 µM (inactive), the GI50 [11] was 17.1 µM (inactive) and the GI50 [12] was 16.7 µM (inactive). For the same molecule, the GI50 [13] was 17.5 µM (inactive), the GI50 [14] was 11.5 µM (inactive) and the GI50 [15] was 4.55 µM (inactive). For the same molecule, the GI50 [16] was > 28.2 µM (inactive), the GI50 [17] was > 27.5 µM (inactive) and the GI50 [18] was 34.1 µM (inactive). The GI50 [19] was > 100 µM (inactive), the GI50 [20] was 0.562 µM (active) and the GI50 [21] was 17.6 µM (inactive). For the same molecule, the GI50 [22] was 37.9 µM (inactive), the GI50 [23] was > 68.5 µM (inactive) and the GI50 [24] was 2.72 µM (inactive). The GI50 [25] was 7.64 µM (inactive), the GI50 [26] was 44.8 µM (inactive) and the GI50 [27] was > 100 µM (inactive). For the same molecule, the GI50 [28] was 7.52 µM (inactive), the GI50 [29] was > 88.1 µM (inactive) and the GI50 [30] was > 100 µM (inactive). The GI50 [31] was > 62.2 µM (inactive), the GI50 [32] was 70.1 µM (inactive) and the GI50 [33] was 52 µM (inactive). The GI50 [34] was > 100 µM (inactive), the GI50 [35] was > 100 µM (inactive) and the GI50 [36] was 27.5 µM (inactive). The GI50 [37] was > 100 µM (inactive), the GI50 [38] was > 100 µM (inactive) and the GI50 [39] was over 61.2 µM. The GI50 [40] was > 100 µM (inactive), the GI50 [41] was 25.2 µM (inactive) and the GI50 [42] was 15.7 µM (inactive). For the same molecule, the GI50 [43] was > 100 µM (inactive), the GI50 [44] was > 30.1 µM (inactive) and the GI50 [45] was > 50.6 µM (inactive). For the same molecule, the GI50 [46] was 28.1 µM (inactive), the GI50 [47] was 5.96 µM (inactive) and the GI50 [48] was > 100 µM (inactive). For the same molecule, the GI50 [49] was 0.0448 µM (active), the GI50 [50] was > 50.2 µM (inactive) and the GI50 [51] was > 83.2 µM (inactive). The GI50 [52] was > 100 µM (inactive), the GI50 [53] was > 100 µM (inactive) and the GI50 [54] was 3.91 µM (inactive). The GI50 [55] was 39.8 µM (inactive), the GI50 [56] was 3.71 µM (inactive) and the GI50 [57] was > 100 µM (inactive). The GI50 [58] was > 33.6 µM (inactive) and the GI50 [59] was > 63.7 µM (inactive).
For `CCN1/C(=C/c2ccc3ccccc3[n+]2CC)C=Cc2ccccc21`, the GI50 [1] was 0.479 µM (active), the GI50 [2] was 2.81 µM (inactive) and the GI50 [3] was 2.18 µM (inactive). The GI50 [4] was 2.13 µM (inactive), the GI50 [5] was 0.262 µM (active) and the GI50 [6] was 2.33 µM (inactive). For the same molecule, the GI50 [7] was 0.805 µM (active), the GI50 [8] was 0.39 µM (active) and the GI50 [9] was 0.762 µM (active). The GI50 [10] was 0.851 µM (active), the GI50 [11] was 0.131 µM (active) and the GI50 [12] was 0.19 µM (active). For the same molecule, the GI50 [13] was 0.767 µM (active), the GI50 [14] was 0.26 µM (active) and the GI50 [15] was 0.367 µM (active). The GI50 [16] was 0.561 µM (active), the GI50 [17] was 3.09 µM (inactive) and the GI50 [18] was 0.266 µM (active). For the same molecule, the GI50 [19] was 10 µM (inactive), the GI50 [20] was 1.01 µM (active) and the GI50 [21] was 1.09 µM (active). For the same molecule, the GI50 [22] was 0.19 µM (active), the GI50 [23] was 0.551 µM (active) and the GI50 [24] was 0.482 µM (active). The GI50 [25] was 0.764 µM (active), the GI50 [26] was 1.14 µM (inactive) and the GI50 [27] was 0.649 µM (active). For the same molecule, the GI50 [28] was 0.329 µM (active), the GI50 [29] was 0.316 µM (active) and the GI50 [30] was 21.9 µM (inactive). For the same molecule, the GI50 [31] was 0.617 µM (active), the GI50 [32] was 0.149 µM (active) and the GI50 [33] was 1.77 µM (inactive). For the same molecule, the GI50 [34] was 0.35 µM (active), the GI50 [35] was 0.445 µM (active) and the GI50 [36] was 0.509 µM (active). For the same molecule, the GI50 [37] was 0.687 µM (active), the GI50 [38] was 1.69 µM (inactive) and the GI50 [39] was 4.89 µM. For the same molecule, the GI50 [40] was 0.555 µM (active), the GI50 [41] was 2.32 µM (inactive) and the GI50 [42] was 1.66 µM (inactive). The GI50 [43] was 0.867 µM (active), the GI50 [44] was 1.39 µM (inactive) and the GI50 [45] was 0.541 µM (active). The GI50 [46] was 1.27 µM (inactive), the GI50 [47] was 0.164 µM (active) and the GI50 [48] was 1.15 µM (inactive). For the same molecule, the GI50 [49] was 1.72 µM (inactive), the GI50 [50] was 0.18 µM (active) and the GI50 [51] was 5.37 µM (inactive). For the same molecule, the GI50 [52] was 1.44 µM (inactive), the GI50 [53] was 0.22 µM (active) and the GI50 [54] was 0.333 µM (active). The GI50 [55] was 1.89 µM (inactive), the GI50 [56] was 0.641 µM (active) and the GI50 [57] was 2.12 µM (inactive). The GI50 [58] was 0.269 µM (active) and the GI50 [59] was 2.51 µM (inactive).
